According to patent US11891442B2, “Compositions and methods for treating age-related diseases” (priority 2017, dated 2024):
“Also recorded” adds a separate entry of the source.

Legend:
Format in all cases: cell-based, mouse
BV2 cells [1] = test: In vitro phagocytosis assay of pH-dependent fluorescent particles; conditions: for Phagocytosis of pH-sensitive fluorescent beads by BV2 cells: WT BV2, time-lapse microscopy 24 hours, sialidase 400 nM 1 hour, 3Fax-Neu5Ac 32 uM; for Phagocytosis of pH-dependent fluorescent particles by BV2 cells: wild-type BV2, no serum or young serum prior to feeding, monitored over 24 hours
Method: (§1) For in vitro phagocytosis assays, cells were split into a 24-well plate 8-24 hours prior to serum treatment at a density of 50,000 cells/well. Following specific treatments, wells were washed twice with PBS and fed pHrodo-labeled 3 μm amino-coated polystyrene particles (Polysciences) at a ratio of 10 particles per cell or crude myelin, isolated as previously described^47, at 1 mg/mL. pHrodo labeling was carried out as previously described to minimize background fluorescence^37. 4 phase and red fluorescent images per well were acquired every hour for 24 hours using the Incucyte S3 live cell analysis system (Essen Bioscience). For each time point, normalized phagocytosis was calculated using the following formula: red object area/phase confluence. To combine data from independent experiments, phagocytosis was calculated relative to control by setting phagocytosis at zero hours in the no serum control cell condition to 0, and this value at 24 hours to 1. Technical triplicates for each experiment were averaged, and the average of three independent experiments was reported.
(§2) For sialidase treatment, cells were incubated with 400 nM Vibrio cholerae sialidase for 1 hour at 37° C. in serum-free DMEM following serum treatment and prior to feeding. 3Fax-Neu5Ac (R&D) was used as previously described^33. The inhibitor was used at a concentration of 32 μM serially diluted in DMSO and used at a final concentration of 0.1% DMSO in DMEM. 3Fax-Neu5Ac was added with serum treatments for 48 hours prior to phagocytosis assays, and replaced in the feeding medium.
Cells were split into a 24-well plate 24 hours prior to feeding at a density of 50,000 cells/well in serum free medium. Following specific treatments, wells were washed twice with PBS and fed pHrodo-labeled 3 micron amino-coated polystyrene particles (Polysciences) at a ratio of 10 particles per cell. pHrodo labeling was carried out as previously described to minimize background fluorescence^37. 4 phase and red fluorescent images per well were acquired every hour for 24 hours using the Incucyte S3 live cell analysis system (Essen Bioscience). For each time point, normalized phagocytosis was calculated using the following formula: red object area/phase confluence. To combine data from independent experiments, phagocytosis relative to control was calculated by setting phagocytosis at zero hours in the control condition to 0, and this value at 24 hours to 1. Technical triplicates for each experiment were averaged, and the average of three independent experiments was identified.
as §2, with “Cells” for “For sialidase treatment, cells”, “DMEM” for “DMEM following serum treatment and”, “phagocytosis.” for “feeding.”, “described^58.” for “described^33.”, “uM” for “μM”

BV2 cells [2] = test: Lectin (SNA, MAA) staining of cell-surface sialic acid by flow cytometry; conditions: WT BV2 cells pretreated with sialidase
Excerpt: Antibodies to CD11b (clone M1/70, BioLegend) and CD45 (clone 30-F11, Biolegend) were used for microglia identification (CD11b+CD45lo). For primary microglia immunophenotyping, the following lectins and antibodies were used: biotinylated Sambucus nigra agglutinin (SNA, Vector Labs), biotinylated Maackia amurensis agglutinins (MAA-1 and MAA-2, Vector), biotinylated Erythrina cristagalli lectin (ECL, EY Labs), biotinylated wheat germ agglutinin (WGA, Vector), recombinant mouse Siglec-E (R&D), recombinant mouse Siglec-F (R&D), antibodies to mouse Siglec-1 (clone REA197, Miltenyi Biotec), CD22 (clone OX-97, Biolegend), Siglec-E (clone M1304A01, Biolegend), Siglec-F (clone ES22-10D8, Miltenyi Biotec), Siglec-G (clone SH1, BD Biosciences), Siglec-H (clone 551, Biolegend), CD33 (clone 9A11, eBioscience), Galectin-3 (clone M3/38, Biolegend). For immunostaining, cells were passed through a 100 μm strainer, blocked for 10 minutes on ice with mouse Fc-blocking reagent (BD), and stained for 30 minutes on ice in DPBS containing calcium and magnesium supplemented with 1% bovine serum albumin. […] Data was analyzed using FlowJo software (TreeStar).
Antibodies to CD11b (clone M1/70, BioLegend) and CD45 (clone 30-F11, Biolegend) were used for microglia identification (CD11b+CD45lo). […] Data was analyzed using FlowJo software (TreeStar).

peritoneal macrophages = test: Peritoneal macrophage phagocytosis of pH-dependent fluorescent latex particles; conditions: aged (20-month-old) compared to young (2-month-old) macrophages; sialidase
Method: as §1
For sialidase treatment, cells were incubated with 400 nM Vibrio cholerae sialidase for 1 hour at 37° C. in serum-free DMEM following serum treatment and prior to feeding. 3Fax-Neu5Ac (R&D) was used as previously described^33. […]

primary microglia = test: Ex vivo microglial phagocytosis assay
Method: Whole brain myelin-depleted single-cell suspensions were prepared as described above. Next, a rough estimation of microglia counts from each brain was determined by strictly gating a volume-designated aliquot of the suspensions by forward scatter/side scatter on a flow cytometer (BD Accuri C6). Each suspension was adjusted to contain equal numbers of microglia per unit volume. Then, single cell brain suspensions were treated with sialidase, a CD22 blocking antibody (R&D), or no treatment for 1 hour at 37° C. with periodic agitation. Treatments were washed out and cells were resuspended in FACS buffer containing pHrodo- or CypHer5E-conjugated particles at a ratio of 50 particles per microglia. The cell-particle mixture was incubated for 1-2 hours at 37° C. with periodic agitation. Phagocytosis was stopped by transferring the suspensions to ice, where the cells were stained with antibodies to distinguish microglia. Microglial phagocytosis was assessed by flow cytometry by pre-gating live CD11b+CD45lo cells and assessing pH dependent particle fluorescence within this population. The eating gate was determined using an unfed control, and confirmed by sorting an aliquot of the sample into noneating and eating populations by FACS followed by microscopic assessment.
Whole brain myelin-depleted single-cell suspensions were prepared as described above. Next, a rough estimation of microglia counts from each brain was determined by strictly gating a volume-designated aliquot of the suspensions by forward scatter/side scatter on a flow cytometer (BD Accuri C6). Each suspension was adjusted to contain equal microglia per unit volume. Then, single cell brain suspensions were treated accordingly for 1 hour in serum free DMEM-F12 at 37° C. with periodic agitation. Treatments were washed out and cells were resuspended in FACS buffer containing pHrodo- or CypHer5E-conjugated particles at a ratio of 50 particles per microglia. The cell-particle mixture was incubated for 1-2 hours at 37° C. with periodic agitation. Phagocytosis was stopped by transferring the suspensions to ice, where the cells were stained with antibodies to distinguish microglia. Microglial phagocytosis was assessed by flow cytometry by pre-gating live CD11b+CD45lo cells and assessing pH-dependent particle fluorescence within this population. The eating gate was determined using an unfed control, and confirmed by sorting an aliquot of the sample into non-eating and eating populations by FACS followed by microscopic assessment.

Row | Compound | Phagocytosis of pH-sensitive fluorescent beads by BV2 cells (BV2 cells [1]) | Phagocytosis of pH-dependent fluorescent particles by BV2 cells (BV2 cells [1]) | Engulfment of pH-dependent beads by BV2 cells (flow cytometry) (BV2 cells [1]; 1 hour of feeding, used to define eating gate) | SNA and MAA ligand expression on the cell surface (BV2 cells [2]) | Phagocytosis by peritoneal macrophages (peritoneal macrophages) | Phagocytosis of pH-sensitive fluorescent beads by CD22 KO BV2 cells (BV2 cells [1]; CD22 KO BV2 + sialidase) | Ex vivo phagocytosis by microglia from aged CD22−/− mice (primary microglia; aged (18 m.o.) CD22−/−) | Ex vivo phagocytosis of latex particles by aged microglia (primary microglia; aged WT mice, 1 hour pretreatment, flow cytometry) | Ex vivo phagocytosis by microglia from 12-month-old CD22−/− mice (primary microglia; relative to age-matched wild-type control microglia) | Ex vivo phagocytosis of latex particles by young microglia (primary microglia; young (2-month-old) mice)
1 | COC(=O)C1(OC(C)=O)OC([C@H](OC(C)=O)[C@@H](COC(C)=O)OC(C)=O)C(NC(C)=O)C(OC(C)=O)C1F (stereo partly drawn) [3Fax-Neu5Ac, reference compound] | promotes phagocytosis in BV2 cells | promoted phagocytosis in the no serum condition only |  |  |  |  |  |  |  | 
2 | C=C1[C@@H](C)[C@H]2[C@H](Cc3ccccc3)NC(=O)[C@]23[C@H](OC(C)=O)/C=C/[C@@](C)(O)C(=O)[C@@H](C)C/C=C/[C@H]3[C@@H]1O [cytochalasin D, reference compound] |  |  | actin polymerization is blocked preventing engulfment |  |  |  |  |  |  | 
3 | sialidase: Sialidase from Vibrio cholerae expressed in Escherichia coli C600; removes cell-surface sialic acid | promotes phagocytosis in BV2 cells | promote phagocytosis in the absence of young serum |  | reduce sialic acid ligands on the cell surface | increased phagocytosis dramatically in aged macrophages | completely abrogated in the absence of CD22 | had no effect in CD22−/− microglia | rescued phagocytosis in aged microglia; also recorded: promoted phagocytosis in WT microglia | reduced pro-phagocytic response to sialidase | did not enhance phagocytosis in already competent young microglia
